In brackets after ≈: the same amount, converted by molar mass. Several values for one entry are separate records, joined by “and”; a condition that tells them apart may be missing. Identical values can stand only once.
Assays:
[1] = tested on: Mycobacterium abscessus ATCC 19977; conditions: in vitro; cited from earlier work
[2] = after 4 h of incubation, Medicines for Malaria Venture data; cited from earlier work
[3] = cited from earlier work
[4] = cited from earlier work; remark: listed apart in the source
[5] = male Sprague Dawley rats; cited from earlier work
[6] = tested on: human kidney epithelia cells HEK293; assay: Single concentration cytotoxicity against HEK293; conditions: HEK293, 50 μM, 24 h, relative to DMSO-treated cells
[7] = In vitro microsomal stability, human microsomal suspension
[8] = In vitro microsomal stability, murine microsomal suspension
[9] = tested on: Mycobacterium tuberculosis H37Rv; conditions: in vitro; cited from earlier work
[10] = Single concentration cytotoxicity against HEK293; conditions: human
[11] = 2 μM substrate, 0.42 mg/mL microsomal proteins, 100 mM phosphate buffer pH 7.4
[12] = after 7 min, 2 μM substrate, 0.42 mg/mL microsomal proteins, pH 7.4

| SMILES | MIC90 against Mabs [1] | remaining substance in murine plasma [2] | stability during incubation with human liver microsomes [3] | stability during incubation with murine liver microsomes [4] | plasma levels after oral administration [5] | relative cell viability [6] | half-life in human microsomal suspension [7, 11] | remaining substance in human microsomal suspension [7, 12] | half-life in murine microsomal suspension [8, 11] | remaining substance in murine microsomal suspension [8, 12] | MIC90 against Mtb [9] | viability at 24 h, 50 µM [10] | stability in human microsomal suspension ([7]; human microsomal suspension) | stability in murine microsomal suspension ([8]; murine microsomal suspension) |
| --- | --- | --- | --- | --- | --- | --- | --- | --- | --- | --- | --- | --- | --- | --- |
| O=C(N[C@H](Cc1ccccc1)C(=O)Nc1ccccc1N1CCOCC1)c1cccs1 [MMV] | 6.25 µM (≈ 2.72 µg/mL) | 60% | highly unstable | highly unstable | insufficient plasma levels | 67% | 1.2 min | 2% | 0.9 min | 0% | – | – | – | – |
| O=C(N[C@H](Cc1ccccc1)C(=O)Nc1ccccc1N1CCS(=O)(=O)CC1)c1ccccc1F [compound 2, (2R)-2-[(2-fluorophenyl)formamido]-N-[2-(1,1-dioxo-1λ6-thiomorpholin-4-yl)phenyl]-3-phenylpropanamide] | 0.78 µM and < 1 µM | – | highly unstable | highly unstable | – | – | – | – | – | – | < 1 µM | 73% | comparably low stabilities | comparably low stabilities |

— paper PMC10965373 (ChemMedChem, 2024)
